Drawing on patent US12358897B2, “Compounds and method of treating COVID-19” (Pfizer Inc., priority 2020, dated 2025), this text covers Ki for 18 molecules.

SMILES strings stand for the structures.

The target in this test is T1, full-length SARS-CoV-2 3CL protease (Severe acute respiratory syndrome coronavirus 2, UniProt P0DTD1).
T1 construct: measures the activity of full-length SARS-CoV-2 3CL protease
Put plainly: SARS-CoV-2 Coronavirus 3C Protease FRET Assay (Dabcyl-KTSAVLQ-SGFRKME-Edans substrate). It counts as biochemical. Conditions: 15 nM enzyme, 25 μM peptide substrate, 60 minutes at 23° C.; Morrison equation fit; read-out: Geometric Mean Ki.

Turning to `COc1cccc2[nH]c(C(=O)N[C@@H](CC(C)C)C(=O)N[C@@H](C[C@@H]3CCNC3=O)C(=O)COC(=O)c3c(C)cc(F)cc3C)cc12` [Example 74, (3S)-3-({N-[(4-methoxy-1H-indol-2-yl)carbonyl]-L-leucyl}amino)-2-oxo-4-[(3S)-2-oxopyrrolidin-3-yl]butyl 4-fluoro-2,6-dimethylbenzoate], the inhibitory constant (Ki) amounted to 44.3 nM.

Take `COc1ccccc1C(=O)OCC(=O)[C@H](C[C@@H]1CCNC1=O)NC(=O)[C@H](CC(C)C)NC(=O)c1cc2c(OC)cccc2[nH]1` [Example 15, (3S)-3-({N-[(4-methoxy-1H-indol-2-yl)carbonyl]-L-leucyl}amino)-2-oxo-4-[(3S)-2-oxopyrrolidin-3-yl]butyl 2-methoxybenzoate]: the Ki was determined as 147 nM.

On to `COc1cccc2[nH]c(C(=O)N[C@@H](CC(C)C)C(=O)N[C@@H](C[C@@H]3CCNC3=O)C(=O)COC(=O)C3(C)CCCCC3)cc12` [Example 13, (3S)-3-({N-[(4-methoxy-1H-indol-2-yl)carbonyl]-L-leucyl}amino)-2-oxo-4-[(3S)-2-oxopyrrolidin-3-yl]butyl 1-methylcyclohexanecarboxylate], for which the Ki was found to be 139 nM.

As to `COc1cccc2[nH]c(C(=O)N[C@@H](CC(C)C)C(=O)N[C@@H](C[C@@H]3CCNC3=O)C(=O)COC(=O)c3c(C)nc(C4CCOCC4)nc3C)cc12` [Example 75, (3S)-3-({N-[(4-methoxy-1H-indol-2-yl)carbonyl]-L-leucyl}amino)-2-oxo-4-[(3S)-2-oxopyrrolidin-3-yl]butyl 4,6-di methyl-2-(tetrahydro-2H-pyran-4-yl)pyrimidine-5-carboxylate], the inhibition constant Ki stood at 5.5 nM.

Take `COc1cccc2[nH]c(C(=O)N[C@@H](CC(C)C)C(=O)N[C@@H](C[C@@H]3CCNC3=O)C(=O)COC(=O)C3CCN(C)CC3)cc12` [Example 30, (3S)-3-({N-[(4-methoxy-1H-indol-2-yl)carbonyl]-L-leucyl}amino)-2-oxo-4-[(3S)-2-oxopyrrolidin-3-yl]butyl 1-methylpiperidine-4-carboxylate]: the Ki was 6.13 nM.

`CC[C@H](C)C(=O)OCC(=O)[C@H](C[C@@H]1CCNC1=O)NC(=O)[C@H](CC(C)C)NC(=O)c1cc2c(OC)cccc2[nH]1` [Example 18, (3S)-3-({N-[(4-methoxy-1H-indol-2-yl)carbonyl]-L-leucyl}amino)-2-oxo-4-[(3S)-2-oxopyrrolidin-3-yl]butyl (2S)-2-methylbutanoate]: the Ki came out at 65.7 nM.

In the case of `COc1cccc2[nH]c(C(=O)N[C@@H](CC(C)C)C(=O)N[C@@H](C[C@@H]3CCNC3=O)C(=O)COC(=O)c3c(C)ccnc3C)cc12` [Example 62, (3S)-3-({N-[(4-methoxy-1H-indol-2-yl)carbonyl]-L-leucyl}amino)-2-oxo-4-[(3S)-2-oxopyrrolidin-3-yl]butyl 2,4-dimethylpyridine-3-carboxylate], the Ki turned out to be 4.29 nM.

With `COc1cccc2[nH]c(C(=O)N[C@@H](CC(C)C)C(=O)N[C@@H](C[C@@H]3CCNC3=O)C(=O)COC(=O)c3cn(C)cn3)cc12` [Example 51, (3S)-3-({N-[(4-methoxy-1H-indol-2-yl)carbonyl]-L-leucyl}amino)-2-oxo-4-[(3S)-2-oxopyrrolidin-3-yl]butyl 1-methyl-1H-imidazole-4-carboxylate], the Ki stood at 152 nM.

Consider `COc1cccc2[nH]c(C(=O)N[C@@H](CC(C)C)C(=O)N[C@@H](C[C@@H]3CCNC3=O)C(=O)COC(=O)c3ccccn3)cc12` [Example 35, (3S)-3-({N-[(4-methoxy-1H-indol-2-yl)carbonyl]-L-leucyl}amino)-2-oxo-4-[(3S)-2-oxopyrrolidin-3-yl]butyl pyridine-2-carboxylate], for which the Ki came out at 4.43 nM.

In the case of `COc1cccc2[nH]c(C(=O)N[C@@H](CC(C)C)C(=O)N[C@@H](C[C@@H]3CCNC3=O)C(=O)COC(=O)c3cnn(C)c3)cc12` [Example 44, (3S)-3-({N-[(4-methoxy-1H-indol-2-yl)carbonyl]-L-leucyl}amino)-2-oxo-4-[(3S)-2-oxopyrrolidin-3-yl]butyl 1-methyl-1H-pyrazole-4-carboxylate], the Ki came to 90.6 nM.

Turning to `COc1cccc2[nH]c(C(=O)N[C@@H](CC(C)C)C(=O)N[C@@H](C[C@@H]3CCNC3=O)C(=O)COC(=O)c3cnccc3C)cc12` [Example 23, (3S)-3-({N-[(4-methoxy-1H-indol-2-yl)carbonyl]-L-leucyl}amino)-2-oxo-4-[(3S)-2-oxopyrrolidin-3-yl]butyl 4-methylpyridine-3-carboxylate], the Ki worked out at 21.2 nM.

As for `COc1cccc2[nH]c(C(=O)N[C@@H](CC(C)C)C(=O)N[C@@H](C[C@@H]3CCNC3=O)C(=O)COC(=O)c3ncn(C)c3C)cc12` [Example 40, (3S)-3-({N-[(4-methoxy-1H-indol-2-yl)carbonyl]-L-leucyl}amino)-2-oxo-4-[(3S)-2-oxopyrrolidin-3-yl]butyl 1,5-dimethyl-1H-imidazole-4-carboxylate], the Ki was determined as 306 nM.

Turning to `COc1cccc2[nH]c(C(=O)N[C@@H](CC(C)C)C(=O)N[C@@H](C[C@@H]3CCNC3=O)C(=O)COC(=O)c3ccn(C)n3)cc12` [Example 43, (3S)-3-({N-[(4-methoxy-1H-indol-2-yl)carbonyl]-L-leucyl}amino)-2-oxo-4-[(3S)-2-oxopyrrolidin-3-yl]butyl 1-methyl-1H-pyrazole-3-carboxylate], the Ki was found to be 118 nM.

As to `COc1cccc2[nH]c(C(=O)N[C@@H](CC(C)C)C(=O)N[C@@H](C[C@@H]3CCNC3=O)C(=O)COC(=O)[C@H]3CCCCN3C)cc12` [Example 37, (3S)-3-({N-[(4-methoxy-1H-indol-2-yl)carbonyl]-L-leucyl}amino)-2-oxo-4-[(3S)-2-oxopyrrolidin-3-yl]butyl (2R)-1-methylpiperidine-2-carboxylate], the Ki was found to be 1.42 nM.

For `CCC(=O)OCC(=O)[C@H](C[C@@H]1CCNC1=O)NC(=O)[C@H](CC(C)C)NC(=O)c1cc2c(OC)cccc2[nH]1` [Example 9, (3S)-3-({N-[(4-methoxy-1H-indol-2-yl)carbonyl]-L-leucyl}amino)-2-oxo-4-[(3S)-2-oxopyrrolidin-3-yl]butyl propanoate], the Ki amounted to 33.6 nM.

Turning to `COc1cccc2[nH]c(C(=O)N[C@@H](CC(C)C)C(=O)N[C@@H](C[C@@H]3CCNC3=O)C(=O)COC(=O)c3cccnc3C)cc12` [Example 24, (3S)-3-({N-[(4-methoxy-1H-indol-2-yl)carbonyl]-L-leucyl}amino)-2-oxo-4-[(3S)-2-oxopyrrolidin-3-yl]butyl 2-methylpyridine-3-carboxylate], the Ki is 14.2 nM.

As to `COc1cccc2[nH]c(C(=O)N[C@@H](CC(C)C)C(=O)N[C@@H](C[C@@H]3CCNC3=O)C(=O)COC(=O)c3cccnc3)cc12` [Example 29, (3S)-3-({N-[(4-methoxy-1H-indol-2-yl)carbonyl]-L-leucyl}amino)-2-oxo-4-[(3S)-2-oxopyrrolidin-3-yl]butyl pyridine-3-carboxylate], the Ki was 9.57 nM.

Take `COc1cccc2[nH]c(C(=O)N[C@@H](CC(C)C)C(=O)N[C@@H](C[C@@H]3CCNC3=O)C(=O)COC(=O)c3ccnn3C)cc12` [Example 42, (3S)-3-({N-[(4-methoxy-1H-indol-2-yl)carbonyl]-L-leucyl}amino)-2-oxo-4-[(3S)-2-oxopyrrolidin-3-yl]butyl 1-methyl-1H-pyrazole-5-carboxylate]: the Ki came to 5.25 nM.

In general, Ki refers to the equilibrium dissociation constant of an inhibitor or competing ligand from its target.
